Target: T1, full-length human BTK (Homo sapiens, UniProt Q06187)
T1 construct: 2.5× stocks of full-length human BTK (08-080); purchased CarnaBio USA, Inc., Natick, Mass; 08-080
Assay: Assay A: BTK IC50 Enzyme Assay (microfluidic off-chip mobility shift kinase assay)
Type: biochemical
Conditions: full-length human BTK, kinKDR peptide substrate, incubated 90 min at 27 C; read-out: Assay A (Time Dependent BTK Enzyme Assay IC50)
How it was run: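 Off-chip microfluidic mobility shift assay with full-length human BTK; phosphorylated and unphosphorylated peptide substrate were separated by charge/mass on a LabChip 3000.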

T1 sequence (Q06187 whole entry): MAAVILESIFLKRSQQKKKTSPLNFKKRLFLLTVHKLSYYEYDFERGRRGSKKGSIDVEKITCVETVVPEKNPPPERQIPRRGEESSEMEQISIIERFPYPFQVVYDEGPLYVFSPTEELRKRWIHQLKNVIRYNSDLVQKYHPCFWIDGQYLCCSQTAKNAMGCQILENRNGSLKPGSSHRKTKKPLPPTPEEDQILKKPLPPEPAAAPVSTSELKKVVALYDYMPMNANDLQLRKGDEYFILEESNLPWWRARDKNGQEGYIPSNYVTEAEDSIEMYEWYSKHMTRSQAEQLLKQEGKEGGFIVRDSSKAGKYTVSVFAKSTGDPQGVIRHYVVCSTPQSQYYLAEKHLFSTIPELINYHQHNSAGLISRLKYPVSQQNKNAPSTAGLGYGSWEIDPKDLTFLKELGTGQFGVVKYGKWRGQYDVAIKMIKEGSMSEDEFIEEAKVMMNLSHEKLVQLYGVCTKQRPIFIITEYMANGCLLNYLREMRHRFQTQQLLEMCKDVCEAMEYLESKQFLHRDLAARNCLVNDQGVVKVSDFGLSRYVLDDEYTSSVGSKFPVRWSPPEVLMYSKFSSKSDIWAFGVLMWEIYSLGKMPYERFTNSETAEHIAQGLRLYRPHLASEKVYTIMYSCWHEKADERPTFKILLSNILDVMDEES

For `C=CC(=O)N[C@H]1CCN(c2nc(Nc3ccc(F)c(C)c3)ccc2C(N)=O)C1` [Compound 157, 2-((S)-3-Acryloylamino-pyrrolidin-1-yl)-6-(4-fluoro-3-methyl-phenylamino)-nicotinamide], which IC50 is on record?
Its IC50 is less than 100 nM.

For `C=CC(=O)N1[C@@H]2CC[C@H]1CC(c1cnc(C(N)=O)cn1)C2` (some centres unmarked) [Compound 136], which IC50 is on record?
The IC50 was 1000 to 5000 nM.

For `C=CC(=O)Nc1cccc(-c2ccc(C(N)=O)c(Oc3ccc(Oc4ccccc4)cc3)n2)c1` [Compound 80, 6-(3-acrylamidophenyl)-2-(4-phenoxyphenoxy)nicotinamide], which IC50 is on record?
Its IC50 is less than 100 nM.

Which IC50 does the source give for `C=CC(=O)N[C@H]1CCN(c2ncc(C(N)=O)c(Oc3ccc(Oc4ccccc4)cc3)n2)C1` [Compound 192, (S)-2-(3-acrylamidopyrrolidin-1-yl)-4-(4-phenoxyphenoxy)pyrimidine-5-carboxamide] here?
The IC50 was 100 to 1000 nM.

Which IC50 does the source give for `C/C=C/C(=O)N1CCC(Nc2cnc(Oc3ccc(Oc4cccc(F)c4)cc3)c(C(N)=O)c2)C1` (centres unmarked) [Compound 229, 5-[1-((E)-But-2-enoyl)-pyrrolidin-3-ylamino]-2-[4-(3-fluoro-phenoxy)-phenoxy]-nicotinamide] here?
Its IC50 is 1000 to 5000 nM.

For `C=CC(=O)N[C@H]1CCN(c2ccc(C(N)=O)c(NC3CCOCC3)n2)C1` [Compound 165, 6-((S)-3-Acryloylamino-pyrrolidin-1-yl)-2-(tetrahydro-pyran-4-ylamino)-nicotinamide], which IC50 is on record?
The IC50 was greater than 5000 nM.

Which IC50 does the source give for `C=CC(=O)N1CCC(c2ccc(C(N)=O)c(Oc3ccc(Oc4ccccc4)cc3)n2)CC1` [Compound 64, 6-(1-acryloylpiperidin-4-yl)-2-(4-phenoxyphenoxy)nicotinamide] here?
Its IC50 is less than 100 nM.

With `C/C=C/C(=O)N1CC2CN(c3cnc(Oc4ccc(Oc5ccccc5)cc4)c(C(N)=O)c3)CC2C1` (centres unmarked) [Compound 217, 5-[5-((E)-But-2-enoyl)-hexahydro-pyrrolo[3,4-c]pyrrol-2-yl]-2-(4-phenoxy-phenoxy)-nicotinamide] as the compound, how does the IC50 read?
Its IC50 is greater than 5000 nM.

How did the IC50 turn out when `C=CC(=O)N1C[C@@H]2CCN(c3ncc(C(N)=O)c(Oc4ccc(Oc5ccccc5)cc4)n3)[C@@H]2C1` [Compound 203, 2-((3aS,6aS)-5-acryloylhexahydropyrrolo[3,4-b]pyrrol-1(2H)-yl)-4-(4-phenoxyphenoxy)pyrimidine-5-carboxamide] was run?
The IC50 was 100 to 1000 nM.

`C/C=C/C(=O)N1CCC(Nc2cnc(Oc3ccc(Oc4ccccc4)cc3)c(C(N)=O)c2)C1` (centres unmarked) [Compound 202, 5-[1-((E)-But-2-enoyl)-pyrrolidin-3-ylamino]-2-(4-phenoxy-phenoxy)-nicotinamide] was tested. Which IC50 did it give?
Its IC50 is 1000 to 5000 nM.

How did the IC50 turn out when `C=CC(=O)N1CCC(Nc2cnc(Oc3ccc(Oc4ccccc4)cc3)c(C(N)=O)c2)CC1` [Compound 252, 5-(1-Acryloyl-piperidin-4-ylamino)-2-(4-phenoxy-phenoxy)-nicotinamide] was run?
The IC50 was less than 100 nM.

For `C=CC(=O)N1CC=C(c2ccc(C(N)=O)c(Nc3ccc(OC4CCN(C)CC4)cc3)n2)CC1` [Compound 13, 1′-Acryloyl-6-[4-(1-methyl-piperidin-4-yloxy)-phenylamino]-1′,2′,3′,6′-tetrahydro-[2,4′]bipyridinyl-5-carboxylic acid amide], which IC50 is on record?
Its IC50 is less than 100 nM.

Which IC50 does the source give for `C=CC(=O)N[C@H]1CCN(c2ccc(C(N)=O)c(Nc3ccc(N4CCC(F)(F)CC4)cc3)n2)C1` [Compound 25, 6-((S)-3-Acryloylamino-pyrrolidin-1-yl)-2-[4-(4,4-difluoro-piperidin-1-yl)-phenylamino]-nicotinamide] here?
The IC50 was less than 100 nM.

For `C=CC(=O)N1CCC(c2cc(Oc3ccc(C(=O)Nc4ccccc4)cc3)c(C(N)=O)cn2)C1` (centres unmarked) [Compound 117], which IC50 is on record?
The IC50 was 1000 to 5000 nM.

Which IC50 does the source give for `C=CC(=O)N1CC2CN(c3cnc(Oc4ccc(Oc5ccccc5)cc4)c(C(N)=O)c3)CC2C1` (centres unmarked) [Compound 216, 5-(5-Acryloyl-hexahydro-pyrrolo[3,4-c]pyrrol-2-yl)-2-(4-phenoxy-phenoxy)-nicotinamide] here?
Its IC50 is 100 to 1000 nM.

`C=CC(=O)NC1CCCN(c2cnc(Oc3ccc(Oc4ccccc4)cc3)c(C(N)=O)c2)C1` (centres unmarked) [Compound 198] was tested. Which IC50 did it give?
The IC50 was 100 to 1000 nM.

How did the IC50 turn out when `C=CC(=O)N1CCn2ncc(-c3cnc(C(N)=O)c(NC(C)=O)c3)c2C1` [Compound 132] was run?
Its IC50 is less than 100 nM.

For `C=CC(=O)N[C@H]1CCN(c2ncc(C(N)=O)c(N)n2)C1` [Compound 142, 2-((S)-3-Acryloylamino-pyrrolidin-1-yl)-4-amino-pyrimidine-5-carboxylic acid amide], which IC50 is on record?
Its IC50 is 100 to 1000 nM.

Which IC50 does the source give for `C=CC(=O)NCc1cccc(-c2cnc(C(N)=O)nc2)c1` [Compound 152] here?
Its IC50 is 1000 to 5000 nM.

With `C=CC(=O)N1CCC(c2ccc(C(N)=O)c(Oc3ccc(Oc4ccc(C)cc4)cc3)n2)C1` (centres unmarked) [Compound 81, 6-(1-acryloylpyrrolidin-3-yl)-2-(4-(p-tolyloxy)phenoxy)nicotinamide] as the compound, how does the IC50 read?
Its IC50 is less than 100 nM.

Which IC50 does the source give for `C=CC(=O)N[C@H]1CCN(c2ccc(C(N)=O)c(NCCN3CCOCC3)n2)C1` [Compound 166, 6-((S)-3-Acryloylamino-pyrrolidin-1-yl)-2-(2-morpholin-4-yl-ethylamino)-nicotinamide] here?
Its IC50 is greater than 5000 nM.

`C=CC(=O)N[C@H]1CCN(c2ccc(C(N)=O)c(Nc3ccc(F)cc3)n2)C1` [Compound 48, 6-((S)-3-Acryloylamino-pyrrolidin-1-yl)-2-(4-fluoro-phenylamino)-nicotinamide] was tested. Which IC50 did it give?
The IC50 was less than 100 nM.

`C=CC(=O)N1C[C@@H]2C[C@H]1CN2c1ccc(C(N)=O)c(Nc2ccc(C)nc2)n1` [Compound 8] was tested. Which IC50 did it give?
Its IC50 is less than 100 nM.

`C=CC(=O)N1C2CCC1CN(c1ncc(C(N)=O)c(Oc3ccc(Oc4ccccc4)cc3)n1)C2` [Compound 149, 2-(8-Acryloyl-3,8-diaza-bicyclo[3.2.1]oct-3-yl)-4-(4-phenoxy-phenoxy)-pyrimidine-5-carboxylic acid amide] was tested. Which IC50 did it give?
The IC50 was less than 100 nM.

With `C=CC(=O)N1CCC(c2ccc(C(N)=O)c(Oc3ccc(Oc4ccccc4)cc3)n2)C1` (centres unmarked) [Compound 70, 6-(1-acryloylpyrrolidin-3-yl)-2-(4-phenoxyphenoxy)nicotinamide] as the compound, how does the IC50 read?
The IC50 was less than 100 nM.

How did the IC50 turn out when `C/C=C/C(=O)N1CCC(c2cnc(Oc3ccc(Oc4cccc(F)c4)cc3)c(C(N)=O)c2)C1` (centres unmarked) [Compound 167, 5-[1-((E)-But-2-enoyl)-pyrrolidin-3-yl]-2-[4-(3-fluoro-phenoxy)-phenoxy]-nicotinamide] was run?
The IC50 was 1000 to 5000 nM.

`C=CC(=O)N[C@H]1CCN(c2ccc(C(N)=O)c(Oc3ccc(Oc4cccc(F)c4)cc3)n2)C1` [Compound 73, (S)-6-(3-acrylamidopyrrolidin-1-yl)-2-(4-(3-fluorophenoxy)phenoxy)nicotinamide] was tested. Which IC50 did it give?
The IC50 was less than 100 nM.

With `N#CN1CCC[C@@H](c2cnc(Oc3ccc(Oc4ccccc4)cc3)c(C(N)=O)c2)C1` [Compound 240, (S)-5-(1-cyanopiperidin-3-yl)-2-(4-phenoxyphenoxy)nicotinamide] as the compound, how does the IC50 read?
The IC50 was 100 to 1000 nM.

How did the IC50 turn out when `C=CC(=O)N[C@H]1CCN(c2ccc(C(N)=O)c(Oc3cnn(Cc4ccccc4)c3)n2)C1` [Compound 97] was run?
The IC50 was 1000 to 5000 nM.

How did the IC50 turn out when `C=CC(=O)N[C@H]1CCN(c2ccc(C(N)=O)c(Nc3ccc(N4CCCC4)nc3)n2)C1` [Compound 41, 6-((S)-3-Acryloylamino-pyrrolidin-1-yl)-2-(6-pyrrolidin-1-yl-pyridin-3-ylamino)-nicotinamide] was run?
Its IC50 is less than 100 nM.

With `C=CC(=O)N1C2CCC1CC(c1ccc(C(N)=O)c(Oc3ccc(Oc4ccccc4)cc3)n1)C2` (centres unmarked) [Compound 71, 6-(8-Acryloyl-8-aza-bicyclo[3.2.1]oct-3-yl)-2-(4-phenoxy-phenoxy)-nicotinamide] as the compound, how does the IC50 read?
Its IC50 is less than 100 nM.

How did the IC50 turn out when `C=CC(=O)N1CC=C(c2ccc(C(N)=O)c(Oc3ccc(Oc4ccccc4)cc3)n2)C1` [Compound 88, 6-(1-acryloyl-2,5-dihydro-1H-pyrrol-3-yl)-2-(4-phenoxyphenoxy)nicotinamide] was run?
The IC50 was 100 to 1000 nM.

With `C=CC(=O)N1C[C@@H]2C[C@H]1CN2c1cnc(C(N)=O)c(Oc2ccc(Oc3ccccc3)cc2)n1` [Compound 135, 5-((1S,4S)-5-Acryloyl-2,5-diaza-bicyclo[2.2.1]hept-2-yl)-3-(4-phenoxy-phenoxy)-pyrazine-2-carboxylic acid amide] as the compound, how does the IC50 read?
The IC50 was 1000 to 5000 nM.

`C=CC(=O)N1CCC(c2ccc(C(N)=O)c(Oc3ccc(Oc4cccc(C#N)c4)cc3)n2)C1` (centres unmarked) [Compound 185, 6-(1-Acryloylpyrrolidin-3-yl)-2-(4-(3-cyanophenoxy)phenoxy)nicotinamide] was tested. Which IC50 did it give?
Its IC50 is less than 100 nM.

Which IC50 does the source give for `C=CC(=O)NCc1ccc(-c2ccc(C(N)=O)c(Oc3ccc(Oc4ccccc4)cc3)n2)cc1` [Compound 89, 6-(4-(acrylamidomethyl)phenyl)-2-(4-phenoxyphenoxy)nicotinamide] here?
The IC50 was 100 to 1000 nM.

`C/C=C(\C#N)C(=O)N1C[C@@H]2C[C@H]1CN2c1ncc(C(N)=O)c(Oc2ccc(Oc3ccccc3)cc2)n1` [Compound 211, 2-((1S,4S)-5-((E)-2-cyanobut-2-enoyl)-2,5-diazabicyclo[2.2.1]heptan-2-yl)-4-(4-phenoxyphenoxy)pyrimidine-5-carboxamide] was tested. Which IC50 did it give?
Its IC50 is 1000 to 5000 nM.

For `C=CC(=O)N[C@H]1CCN(c2cc(Oc3ccc(C(=O)Nc4ccccc4)cc3)c(C(N)=O)cn2)C1` [Compound 116, (S)-6-(3-acrylamidopyrrolidin-1-yl)-4-(4-(phenylcarbamoyl)phenoxy)nicotinamide], which IC50 is on record?
The IC50 was 1000 to 5000 nM.

`C=CC(=O)N[C@H]1C[C@H](Nc2ncc(C(N)=O)c(Oc3ccc(Oc4ccccc4)cc3)n2)C1` [Compound 176, 2-(((1r,3r)-3-acrylamidocyclobutyl)amino)-4-(4-phenoxyphenoxy)pyrimidine-5-carboxamide] was tested. Which IC50 did it give?
Its IC50 is 100 to 1000 nM.

With `C=CC(=O)N1CCN(c2ncc(C(N)=O)c(Oc3ccc(Oc4ccccc4)cc3)n2)C(C)C1` (centres unmarked) [Compound 218, 2-(4-acryloyl-2-methylpiperazin-1-yl)-4-(4-phenoxyphenoxy)pyrimidine-5-carboxamide] as the compound, how does the IC50 read?
The IC50 was less than 100 nM.

How did the IC50 turn out when `C=CC(=O)N[C@H]1CCN(c2ccc(C(N)=O)c(Nc3ccc(C(=O)N4CCCCC4)cc3)n2)C1` [Compound 21, 6-((S)-3-Acryloylamino-pyrrolidin-1-yl)-2-[4-(piperidine-1-carbonyl)-phenylamino]-nicotinamide] was run?
Its IC50 is less than 100 nM.

For `C=CC(=O)N[C@H]1CCN(c2nc(Oc3ccc(Oc4ccccc4)cc3)c(C(N)=O)cc2F)C1` [Compound 2, 6-((S)-3-Acryloylamino-pyrrolidin-1-yl)-5-fluoro-2-(4-phenoxy-phenoxy)-nicotinamide], which IC50 is on record?
Its IC50 is 100 to 1000 nM.
